According to PubChem BioAssay (NCI):
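Each compound was tested at five concentrations against cells in 96-well plates for 48 hours. TGI marks complete inhibition of growth.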

Columns and labels:
Assay in all cases: DTP human tumour cell line panel, 48 h
LOX IMVI melanoma = system: LOX IMVI melanoma
CCRF-CEM leukemia = system: CCRF-CEM leukemia
MDA-MB-231 breast = system: MDA-MB-231 breast
SK-MEL-2 melanoma = system: SK-MEL-2 melanoma
OVCAR-4 ovarian = system: OVCAR-4 ovarian
PC-3 prostate = system: PC-3 prostate
RPMI-8226 leukemia = system: RPMI-8226 leukemia
MDA-N = system: MDA-N
KM12 colon = system: KM12 colon
OVCAR-8 ovarian = system: OVCAR-8 ovarian
HOP-92 NSCLC = system: HOP-92 NSCLC

| SMILES | TGI (LOX IMVI melanoma) | TGI (CCRF-CEM leukemia) | TGI (MDA-MB-231 breast) | TGI (SK-MEL-2 melanoma) | TGI (OVCAR-4 ovarian) | TGI (PC-3 prostate) | TGI (RPMI-8226 leukemia) | TGI (MDA-N) | TGI (KM12 colon) | TGI (OVCAR-8 ovarian) | TGI (HOP-92 NSCLC) |
| --- | --- | --- | --- | --- | --- | --- | --- | --- | --- | --- | --- |
| Cc1ccc(C)n1-n1c(-c2ccccc2)n[nH]c1=O | > 100 µM | > 100 µM | > 100 µM | > 100 µM | > 100 µM | > 100 µM | > 100 µM | 70.8 µM | > 100 µM | > 100 µM | – |
| O=C(Nn1cnn2c(=O)c3ccccc3nc2c1=O)c1ccccc1 | > 100 µM | > 100 µM | > 100 µM | > 100 µM | > 100 µM | > 100 µM | > 100 µM | > 100 µM | > 100 µM | > 100 µM | > 100 µM |
| COc1ccccc1NC(=S)Nc1cc(C)ccn1 | > 100 µM | > 100 µM | 60.7 µM | > 100 µM | > 100 µM | > 100 µM | > 100 µM | > 100 µM | > 100 µM | > 100 µM | – |
| C=C1CC(COc2ccc3c(C)cc(=O)oc3c2)(c2ccccc2)OC1=O (stereo not given) | 3.1 µM | – | 9.07 µM | 3.65 µM | – | 5.78 µM | 1.62 µM | 5.78 µM | > 27.7 µM | 5.57 µM | 1.56 µM |
| CC(=O)O[C@@H]1O[Si](C(C)(C)C)(C(C)(C)C)[C@H](C)[C@H]1C | > 100 µM | > 100 µM | > 100 µM | > 100 µM | > 100 µM | > 100 µM | > 100 µM | > 100 µM | > 100 µM | > 100 µM | – |
| COC(=O)[C@@H]1Cc2cc(O)c(O)cc2C2(CCN(C)CC2)O1 | > 10 µM | > 10 µM | > 10 µM | > 10 µM | > 10 µM | > 10 µM | > 10 µM | > 10 µM | > 10 µM | > 10 µM | > 10 µM |
| CN(C)C(=O)C1CCN(Cc2c[nH]c3ccccc23)CC1 | > 100 µM | – | > 100 µM | > 100 µM | > 100 µM | > 100 µM | > 100 µM | > 100 µM | > 100 µM | > 100 µM | > 100 µM |
| COc1ccc(N2C(=O)/C(=C\c3cccc(Oc4ccccc4)c3)SC2c2ccccc2)cc1 (stereo not given) | > 100 µM | 44.8 µM | > 100 µM | > 100 µM | > 100 µM | – | 60.9 µM | > 100 µM | > 100 µM | > 100 µM | > 100 µM |
| Cc1cc(C)n(C(=O)CSc2nnc(SCC(=O)n3nc(C)cc3C)s2)n1 | > 100 µM | > 100 µM | > 100 µM | – | > 100 µM | > 100 µM | > 100 µM | > 100 µM | > 100 µM | > 100 µM | > 100 µM |
| Oc1ccc(-c2cn3cc(C(F)(F)F)ccc3n2)cc1 | > 100 µM | > 100 µM | > 100 µM | > 100 µM | > 100 µM | > 100 µM | – | > 100 µM | > 100 µM | > 100 µM | > 100 µM |
| COc1ccc2nc3n(c2c1)C(c1c(Cl)cccc1Cl)SC3 (stereo not given) | > 100 µM | > 100 µM | – | > 100 µM | 65.9 µM | > 100 µM | > 100 µM | > 100 µM | > 100 µM | > 100 µM | > 100 µM |
| COC(=O)C1C(C(=O)OC)C1(Br)CBr (stereo not given) | 51.5 µM | – | > 100 µM | > 100 µM | > 100 µM | > 100 µM | 44.3 µM | > 100 µM | > 100 µM | > 100 µM | 54.9 µM |
| CCN(CC)COC(=S)S | > 100 µM | – | > 100 µM | 57 µM | > 100 µM | > 100 µM | – | > 100 µM | > 100 µM | > 100 µM | > 100 µM |
| CC(C)CN(CC#N)CC(C)C | > 100 µM | – | > 100 µM | – | > 100 µM | > 100 µM | > 100 µM | > 100 µM | > 100 µM | > 100 µM | > 100 µM |
| O=[N+]([O-])c1cccc2nc3ccccc3c(NCCCN3CCCCC3)c12 | 0.0562 µM | – | 0.0509 µM | 0.0296 µM | 0.031 µM | 0.0305 µM | 0.0611 µM | 0.0217 µM | 0.112 µM | 0.118 µM | 0.0434 µM |
| O=[As](O)(O)c1ccc2nc3cc([As](=O)(O)O)ccc3nc2c1 | > 100 µM | – | > 100 µM | > 100 µM | > 100 µM | > 100 µM | – | > 100 µM | > 100 µM | > 100 µM | > 100 µM |
| N#Cc1c(-c2ccccc2)c(C#N)c(=O)n(C2OC(CO)C(O)C(O)C2O)c1S (stereo not given) | > 100 µM | > 100 µM | > 100 µM | > 100 µM | – | > 100 µM | > 100 µM | > 100 µM | > 100 µM | > 100 µM | – |
| CCCCCCCCCc1c(O)c(O)c(CCCCCCCCC)c(CCCCCCCCC)c1CCCCCCCCC | > 100 µM | 88.6 µM | > 100 µM | > 100 µM | > 100 µM | > 100 µM | > 100 µM | > 100 µM | > 100 µM | > 100 µM | – |
| N#Cc1c(N)c(C#N)c2c(c1-c1ccc(Cl)cc1)COc1ccccc1-2 | > 100 µM | 33 µM | 92.3 µM | 60.1 µM | 30 µM | 42.6 µM | 17.1 µM | 66.4 µM | > 100 µM | – | 45.5 µM |
| O=C(O)c1ccc(Nc2nc3cc(C(F)(F)F)ccc3nc2-c2ccccc2)cc1 | 32.5 µM | > 100 µM | > 100 µM | – | – | 40.6 µM | 83.1 µM | > 100 µM | 35.3 µM | > 100 µM | – |
| O=C1NC(S(=O)(=O)O)=NNC12c1ccccc1-c1ccccc12 | > 10 µM | > 10 µM | > 10 µM | – | > 10 µM | > 10 µM | > 10 µM | > 10 µM | > 10 µM | > 10 µM | > 10 µM |
| CCN(CC)CCNc1ccc(C)c2sc3ccccc3c(=O)c12 | 3.26 µM | 8.04 µM | 7.96 µM | 10.3 µM | 18.1 µM | 11.2 µM | 4.37 µM | 4.04 µM | 10.4 µM | 13.3 µM | – |
